Laboratory results taken from patent US9883669B2, “Maintenance medium for primate pluripotent stem cells” (priority 2014, dated 2018).

Test system: human iPS cells (253G1 lines and 201B7 lines)
Experiment: Observation of colony morphology of human iPS cells by light microscope
Format: cell-based
Conditions: xylose 3 g/L, 0, 24, 48, 72 hours, KSR
Procedure: During culture period, medium change was performed daily.
For a xylose medium for iPS cells in which xylose concentrations were 3 g/L and 15 g/L, the morphology of iPS cell colonies at 96 and 120 hours after culture was also observed with a light microscope (IX70, manufactured by Olympus Corporation).

| Structure (SMILES) | colony morphology and proliferation inhibitory effects, D-xylose versus L-xylose |
| --- | --- |
| O=C[C@@H](O)[C@H](O)[C@@H](O)CO [L-xylose] | no differences |
| O=C[C@H](O)[C@@H](O)[C@H](O)CO [D-xylose] | no differences |
